Non-standard residues stand in square brackets, D forms with d. Residues, ends and D or L forms follow the SMILES beside them. ξ: configuration not given here. *: point of attachment. DOTA = O=C(O)CN1CCN(CC(=O)O)CCN(CC(=O)*)CCN(CC(=O)O)CC1; PEG4 = NCCOCCOCCOCCOCCC(=O)O; ξIle = CC[C@H](C)C(N)C(=O)O; AEEA = NCCOCCOCC(=O)O; Aib = CC(C)(N)C(=O)O; AEA = NCCOCC(=O)O
Experiments:
integrin α5β1 = integrin α5β1 (Homo sapiens, UniProt P05556+P08648); test: Target affinity test by surface plasmon resonance (SPR), integrin α5β1; assay type: binding; conditions: for Kd: SPR (Biacore T200), CM5 chip, 25° C., KD=Kd/Ka
Description: (§1) Surface plasmon resonance (SPR) technique was used to test the affinity of the compound in the examples to the target protein integrin α5β1. Specifically, the following operations were performed.
(§2) The affinity constants (KD) of the compounds to the target proteins integrin α5β1, αvβ3, and αvβ5 were calculated according to the formula of KD=Kd/Ka (the lower the value of KD, the higher the affinity of the compounds of the examples to the target protein integrin α5β1).

integrin αvβ3 = integrin αvβ3 (Homo sapiens, UniProt P05106+P06756); test: Target affinity test by surface plasmon resonance (SPR), integrin αvβ3; assay type: binding; conditions: for Kd: SPR (Biacore T200), CM5 chip, 25° C., KD=Kd/Ka
Description: as §1, §2

in vivo [1] = test: in vivo; design: species or system mice; conditions: M-NSG, mouse, iv, 100 uCi, total radioactivity
Description: (§3) For example, labeling TM4 with radioactive ^68Ga: An aqueous solution of TM4 (DOTA-Asn-Asp-Val-Ile-Asn-OH) (20 μg) was added to the prepared ^68GaCl3 solution, and the pH was adjusted to 3-5 with aqueous sodium acetate and acetic acid. This system was reacted at 70-95° C. for 15 min, and then purified after the reaction was completed to obtain a labeled solution of ^68Ga-DOTA-Asn-Asp-Val-Ile-Asn-OH (^68Ga-TM4).
(§4) All compounds were labeled with ^68Ga in the same way as described above.
Approximately 100 μCi of ^68Ga injection was injected into the tail vein of M-NSG mice inoculated with H1975. […] Table 6 was obtained by image post-processing.

in vivo [2] = test: in vivo; design: species or system mice; conditions: naked (nude), mouse, iv, 100 uCi, total radioactivity
Description: as §3, §4
Approximately 100 μCi of ^68Ga injection was injected into the tail vein of naked mice inoculated with SKOV3.

in vivo [3] = test: in vivo; design: species or system mice; conditions: naked (nude), mouse, iv, 100 uCi, total radioactivity; remark: listed apart in the source
Description: as §3, §4
Approximately 100 μCi of ^68Ga injection was injected into the tail vein of naked mice inoculated with MC38.

integrin α5β1, sequence (P08648 42-995 limits assumed): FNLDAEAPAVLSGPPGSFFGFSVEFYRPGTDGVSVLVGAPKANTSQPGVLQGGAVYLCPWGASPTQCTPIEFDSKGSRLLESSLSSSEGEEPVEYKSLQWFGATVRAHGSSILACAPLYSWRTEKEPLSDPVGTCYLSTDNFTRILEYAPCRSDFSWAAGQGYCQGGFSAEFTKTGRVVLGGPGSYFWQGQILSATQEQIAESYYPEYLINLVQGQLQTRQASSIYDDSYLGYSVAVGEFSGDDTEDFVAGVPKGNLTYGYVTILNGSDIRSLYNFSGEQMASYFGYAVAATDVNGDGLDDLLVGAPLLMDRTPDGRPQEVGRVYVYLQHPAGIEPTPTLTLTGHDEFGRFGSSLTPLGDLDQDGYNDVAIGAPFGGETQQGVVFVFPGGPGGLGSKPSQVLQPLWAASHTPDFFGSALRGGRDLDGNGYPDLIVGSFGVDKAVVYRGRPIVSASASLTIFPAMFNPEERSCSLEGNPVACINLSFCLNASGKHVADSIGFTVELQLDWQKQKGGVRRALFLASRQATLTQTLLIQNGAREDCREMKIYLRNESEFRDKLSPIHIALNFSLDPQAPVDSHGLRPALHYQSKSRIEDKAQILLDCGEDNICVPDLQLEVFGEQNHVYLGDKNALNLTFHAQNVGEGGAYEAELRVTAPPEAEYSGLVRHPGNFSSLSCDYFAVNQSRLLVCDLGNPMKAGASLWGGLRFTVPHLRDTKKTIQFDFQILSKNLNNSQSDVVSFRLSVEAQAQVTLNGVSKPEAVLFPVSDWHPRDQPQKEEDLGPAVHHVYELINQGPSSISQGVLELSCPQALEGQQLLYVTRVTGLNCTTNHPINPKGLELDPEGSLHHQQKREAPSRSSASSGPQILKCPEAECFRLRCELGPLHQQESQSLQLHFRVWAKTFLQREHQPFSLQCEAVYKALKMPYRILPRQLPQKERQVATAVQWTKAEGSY
integrin α5β1, sequence (P05556 21-728 limits assumed): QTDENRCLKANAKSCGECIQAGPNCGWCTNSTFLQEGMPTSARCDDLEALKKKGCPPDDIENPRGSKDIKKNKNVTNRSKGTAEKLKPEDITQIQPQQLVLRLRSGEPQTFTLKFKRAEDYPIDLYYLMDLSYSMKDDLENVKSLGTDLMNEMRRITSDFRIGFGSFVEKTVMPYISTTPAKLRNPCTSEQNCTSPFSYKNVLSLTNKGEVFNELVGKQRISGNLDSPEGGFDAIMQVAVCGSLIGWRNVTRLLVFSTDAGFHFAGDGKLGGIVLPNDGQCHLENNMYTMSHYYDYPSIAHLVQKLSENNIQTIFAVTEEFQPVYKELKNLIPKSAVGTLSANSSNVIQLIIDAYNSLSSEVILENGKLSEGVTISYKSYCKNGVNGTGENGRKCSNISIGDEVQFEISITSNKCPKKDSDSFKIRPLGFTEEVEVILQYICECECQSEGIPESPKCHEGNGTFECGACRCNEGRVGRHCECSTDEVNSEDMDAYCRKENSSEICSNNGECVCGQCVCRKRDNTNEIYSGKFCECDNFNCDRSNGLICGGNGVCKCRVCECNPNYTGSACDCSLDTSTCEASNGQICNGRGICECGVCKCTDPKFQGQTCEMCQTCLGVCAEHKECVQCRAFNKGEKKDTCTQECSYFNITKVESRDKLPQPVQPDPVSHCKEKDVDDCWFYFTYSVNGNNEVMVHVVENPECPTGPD
integrin αvβ3, sequence (P06756 31-992 limits assumed): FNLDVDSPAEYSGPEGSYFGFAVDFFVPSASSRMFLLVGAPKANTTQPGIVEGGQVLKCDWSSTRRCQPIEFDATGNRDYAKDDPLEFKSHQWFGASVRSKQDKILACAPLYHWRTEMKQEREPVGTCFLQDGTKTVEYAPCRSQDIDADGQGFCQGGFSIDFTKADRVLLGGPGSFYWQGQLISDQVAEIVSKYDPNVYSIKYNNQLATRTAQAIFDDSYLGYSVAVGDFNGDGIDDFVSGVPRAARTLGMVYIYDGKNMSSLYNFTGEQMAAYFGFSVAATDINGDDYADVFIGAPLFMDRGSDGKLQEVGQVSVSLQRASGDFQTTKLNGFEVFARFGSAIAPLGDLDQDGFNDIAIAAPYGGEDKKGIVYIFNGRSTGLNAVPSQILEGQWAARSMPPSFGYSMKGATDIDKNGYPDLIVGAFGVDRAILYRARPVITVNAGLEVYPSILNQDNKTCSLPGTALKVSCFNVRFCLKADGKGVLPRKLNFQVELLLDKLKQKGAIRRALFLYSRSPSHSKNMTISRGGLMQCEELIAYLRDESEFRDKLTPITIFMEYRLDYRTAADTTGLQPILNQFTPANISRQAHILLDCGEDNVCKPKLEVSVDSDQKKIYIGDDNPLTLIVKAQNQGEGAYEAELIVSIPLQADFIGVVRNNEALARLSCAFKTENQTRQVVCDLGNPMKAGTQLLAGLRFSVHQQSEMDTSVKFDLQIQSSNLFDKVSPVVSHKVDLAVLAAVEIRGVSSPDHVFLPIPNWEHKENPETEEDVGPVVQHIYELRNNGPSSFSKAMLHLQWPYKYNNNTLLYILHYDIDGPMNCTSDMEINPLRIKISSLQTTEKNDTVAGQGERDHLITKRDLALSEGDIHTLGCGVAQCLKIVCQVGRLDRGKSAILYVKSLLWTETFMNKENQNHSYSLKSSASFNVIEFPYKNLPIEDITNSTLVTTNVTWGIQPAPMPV
integrin αvβ3, sequence (P05106 27-718 limits assumed): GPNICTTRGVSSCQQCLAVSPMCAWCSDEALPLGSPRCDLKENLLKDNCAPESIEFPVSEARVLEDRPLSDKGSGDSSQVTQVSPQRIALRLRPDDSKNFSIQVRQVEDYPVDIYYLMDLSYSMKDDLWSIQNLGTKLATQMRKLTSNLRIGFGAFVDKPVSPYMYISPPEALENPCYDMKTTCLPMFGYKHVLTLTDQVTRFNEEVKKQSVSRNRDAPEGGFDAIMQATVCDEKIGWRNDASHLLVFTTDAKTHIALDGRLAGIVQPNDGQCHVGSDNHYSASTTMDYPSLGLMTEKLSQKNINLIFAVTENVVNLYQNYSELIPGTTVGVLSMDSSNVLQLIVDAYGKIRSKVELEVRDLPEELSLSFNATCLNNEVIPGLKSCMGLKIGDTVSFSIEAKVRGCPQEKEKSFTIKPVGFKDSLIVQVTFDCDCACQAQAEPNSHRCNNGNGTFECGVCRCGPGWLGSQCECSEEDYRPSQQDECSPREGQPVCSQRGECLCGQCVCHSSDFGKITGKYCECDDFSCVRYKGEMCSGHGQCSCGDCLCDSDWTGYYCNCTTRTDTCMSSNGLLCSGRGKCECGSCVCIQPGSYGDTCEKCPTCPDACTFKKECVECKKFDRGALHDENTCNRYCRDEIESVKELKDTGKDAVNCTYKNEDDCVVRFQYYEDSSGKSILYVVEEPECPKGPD

With `CC[C@H](C)[C@H](NC(=O)[C@@H](NC(=O)[C@H](CC(=O)O)NC(=O)[C@H](CC(N)=O)NC(=O)COCCNC(=O)CN1CCN(CC(=O)O)CCN(CC(=O)O)CCN(CC(=O)O)CC1)C(C)C)C(=O)N[C@@H](CC(N)=O)C(=O)O` [TM13] ({DOTA-AEA}-NDVIN-OH) the Kd (integrin α5β1) was 1450 nM, the “affinity constant (KD) to integrin αvβ3, in words” value (integrin αvβ3; SPR) was “nM level” and the Kd (integrin αvβ3) was 0.646 nM.

In the case of `CC[C@H](C)C(NC(=O)[C@@H](NC(=O)[C@H](CC(=O)O)NC(=O)[C@H](CC(N)=O)NC(=O)COCCOCCNC(=O)CN1CCN(CC(=O)O)CCN(CC(=O)O)CCN(CC(=O)O)CC1)C(C)C)C(=O)N[C@@H](CC(N)=O)C(=O)O` (stereo partly shown) [TM14] ({DOTA-AEEA}-NDV[ξIle]N-OH), the “affinity constant (KD) to integrin α5β1, in words” value (integrin α5β1; SPR) is reported as “better than nM level”, the Kd (integrin α5β1) is reported as 9.43 nM and the Kd (integrin αvβ3) is reported as 36.7 nM.

For `CC[C@H](C)[C@H](NC(=O)[C@@H](NC(=O)[C@H](CC(=O)O)NC(=O)[C@H](CC(N)=O)NC(=O)CN1CCN(CC(=O)O)CCN(CC(=O)O)CCN(CC(=O)O)CC1)C(C)C)C(=O)N[C@@H](CC(N)=O)C(=O)O` [^68Ga-TM4, ^68Ga-DOTA-Asn-Asp-Val-Ile-Asn-OH, metal not drawn] ({DOTA}-NDVIN-OH), the tissue uptake at 1 h (in vivo [1]; % ID/g Bone) was 0.3 %ID/g, the tissue uptake at 1 h (in vivo [1]; % ID/g Brain) was 0.5 %ID/g and the tissue uptake at 1 h (in vivo [1]; % ID/g Heart) was 0.96 %ID/g. The tissue uptake at 1 h (in vivo [1]; % ID/g Intestine) was 0.56 %ID/g, the tissue uptake at 1 h (in vivo [1]; % ID/g Kidney) was 4.8 %ID/g and the tissue uptake at 1 h (in vivo [1]; % ID/g Liver) was 0.79 %ID/g. The tissue uptake at 1 h (in vivo [1]; % ID/g Lung) was 0.47 %ID/g, the tissue uptake at 1 h (in vivo [1]; % ID/g Muscle) was 0.36 %ID/g and the tissue uptake at 1 h (in vivo [1]; % ID/g Tumor) was 1.4 %ID/g.

For `CC[C@H](C)[C@H](NC(=O)[C@@H](NC(=O)[C@H](CC(=O)O)NC(=O)[C@H](CC(N)=O)NC(=O)CCOCCOCCOCCOCCNC(=O)CN1CCN(CC(=O)O)CCN(CC(=O)O)CCN(CC(=O)O)CC1)C(C)C)C(=O)N[C@@H](CC(N)=O)C(=O)O` [^68Ga-TM5, metal not drawn] ({DOTA-PEG4}-NDVIN-OH), the tissue uptake at 1 h (in vivo [1]; % ID/g Bone) was 0.22 %ID/g, the tissue uptake at 1 h (in vivo [1]; % ID/g Brain) was 0.25 %ID/g and the tissue uptake at 1 h (in vivo [1]; % ID/g Heart) was 0.45 %ID/g. The tissue uptake at 1 h (in vivo [1]; % ID/g Intestine) was 0.57 %ID/g, the tissue uptake at 1 h (in vivo [1]; % ID/g Kidney) was 7.4 %ID/g and the tissue uptake at 1 h (in vivo [1]; % ID/g Liver) was 0.5 %ID/g. It also gave a tissue uptake at 1 h (in vivo [1]; % ID/g Lung) of 0.24 %ID/g, a tissue uptake at 1 h (in vivo [1]; % ID/g Muscle) of 0.21 %ID/g and a tissue uptake at 1 h (in vivo [1]; % ID/g Tumor) of 1.1 %ID/g.

Compound `CC[C@H](C)[C@H](NC(=O)[C@@H](NC(=O)[C@H](CC(=O)O)NC(=O)[C@H](CC(N)=O)NC(=O)[C@H](CC(=O)O)NC(=O)CNC(=O)[C@H](CCCNC(=N)N)NC(=O)CCOCCOCCOCCOCCNC(=O)CN1CCN(CC(=O)O)CCN(CC(=O)O)CCN(CC(=O)O)CC1)C(C)C)C(=O)N[C@@H](CC(N)=O)C(=O)O` [^68Ga-TM7, metal not drawn] ({DOTA-PEG4}-RGDNDVIN-OH) has a tissue uptake at 1 h (in vivo [1]; % ID/g Bone) of 0.24 %ID/g, a tissue uptake at 1 h (in vivo [1]; % ID/g Brain) of 0.24 %ID/g and a tissue uptake at 1 h (in vivo [1]; % ID/g Heart) of 0.5 %ID/g. For the same compound, the tissue uptake at 1 h (in vivo [1]; % ID/g Intestine) was 0.45 %ID/g, the tissue uptake at 1 h (in vivo [1]; % ID/g Kidney) was 64.5 %ID/g and the tissue uptake at 1 h (in vivo [1]; % ID/g Liver) was 0.53 %ID/g. It also gave a tissue uptake at 1 h (in vivo [1]; % ID/g Lung) of 0.3 %ID/g, a tissue uptake at 1 h (in vivo [1]; % ID/g Muscle) of 0.28 %ID/g and a tissue uptake at 1 h (in vivo [1]; % ID/g Tumor) of 0.75 %ID/g.

For `CC[C@H](C)[C@H](NC(=O)C(C)(C)NC(=O)[C@H](CC(=O)O)NC(=O)[C@H](CC(N)=O)NC(=O)CN1CCN(CC(=O)O)CCN(CC(=O)O)CCN(CC(=O)O)CC1)C(=O)N[C@@H](CC(N)=O)C(=O)O` [^68Ga-TM11, metal not drawn] ({DOTA}-ND[Aib]IN-OH), the tissue uptake at 1 h (in vivo [2]; % ID/g Bladder) was 4.7 %ID/g, the tissue uptake at 1 h (in vivo [2]; % ID/g Bone) was 0.04 %ID/g and the tissue uptake at 1 h (in vivo [2]; % ID/g Brain) was 0.09 %ID/g. For the same compound, the tissue uptake at 1 h (in vivo [2]; % ID/g Heart) was 0.11 %ID/g, the tissue uptake at 1 h (in vivo [2]; % ID/g Intestine) was 0.33 %ID/g and the tissue uptake at 1 h (in vivo [2]; % ID/g Kidney) was 0.52 %ID/g. It also gave a tissue uptake at 1 h (in vivo [2]; % ID/g Liver) of 0.15 %ID/g, a tissue uptake at 1 h (in vivo [2]; % ID/g Lung) of 0.08 %ID/g and a tissue uptake at 1 h (in vivo [2]; % ID/g Muscle) of 0.05 %ID/g. It also gave a tissue uptake at 1 h (in vivo [2]; % ID/g Tumor) of 0.42 %ID/g, a tissue uptake at 1 h (in vivo [1]; % ID/g Bone) of 0.27 %ID/g and a tissue uptake at 1 h (in vivo [1]; % ID/g Brain) of 0.21 %ID/g. For the same compound, the tissue uptake at 1 h (in vivo [1]; % ID/g Heart) was 0.53 %ID/g, the tissue uptake at 1 h (in vivo [1]; % ID/g Intestine) was 0.5 %ID/g and the tissue uptake at 1 h (in vivo [1]; % ID/g Kidney) was 4 %ID/g. For the same compound, the tissue uptake at 1 h (in vivo [1]; % ID/g Liver) was 0.43 %ID/g, the tissue uptake at 1 h (in vivo [1]; % ID/g Lung) was 0.31 %ID/g and the tissue uptake at 1 h (in vivo [1]; % ID/g Muscle) was 0.31 %ID/g. For the same compound, the tissue uptake at 1 h (in vivo [1]; % ID/g Tumor) was 0.94 %ID/g, the tissue uptake at 1 h (in vivo [3]; % ID/g Bladder) was 18.9 %ID/g and the tissue uptake at 1 h (in vivo [3]; % ID/g Bone) was 0.08 %ID/g. The tissue uptake at 1 h (in vivo [3]; % ID/g Brain) was 0.18 %ID/g, the tissue uptake at 1 h (in vivo [3]; % ID/g Heart) was 0.25 %ID/g and the tissue uptake at 1 h (in vivo [3]; % ID/g Intestine) was 0.59 %ID/g. The tissue uptake at 1 h (in vivo [3]; % ID/g Kidney) was 1.2 %ID/g, the tissue uptake at 1 h (in vivo [3]; % ID/g Liver) was 0.29 %ID/g and the tissue uptake at 1 h (in vivo [3]; % ID/g Lung) was 0.15 %ID/g. It also gave a tissue uptake at 1 h (in vivo [3]; % ID/g Muscle) of 0.08 %ID/g and a tissue uptake at 1 h (in vivo [3]; % ID/g Tumor) of 0.73 %ID/g.

In the case of `CC[C@H](C)[C@H](NC(=O)[C@@H](NC(=O)[C@H](CC(=O)O)NC(=O)[C@H](CC(N)=O)NC(=O)COCCNC(=O)CN1CCN(CC(=O)O)CCN(CC(=O)O)CCN(CC(=O)O)CC1)C(C)C)C(=O)N[C@@H](CC(N)=O)C(=O)O` [^68Ga-TM13, metal not drawn] ({DOTA-AEA}-NDVIN-OH), the tissue uptake at 1 h (in vivo [2]; % ID/g Bladder) is reported as 15.6 %ID/g, the tissue uptake at 1 h (in vivo [2]; % ID/g Bone) is reported as 0.08 %ID/g and the tissue uptake at 1 h (in vivo [2]; % ID/g Brain) is reported as 0.09 %ID/g. It also gave a tissue uptake at 1 h (in vivo [2]; % ID/g Heart) of 0.17 %ID/g, a tissue uptake at 1 h (in vivo [2]; % ID/g Intestine) of 0.85 %ID/g and a tissue uptake at 1 h (in vivo [2]; % ID/g Kidney) of 1.4 %ID/g. For the same compound, the tissue uptake at 1 h (in vivo [2]; % ID/g Liver) was 0.3 %ID/g, the tissue uptake at 1 h (in vivo [2]; % ID/g Lung) was 0.12 %ID/g and the tissue uptake at 1 h (in vivo [2]; % ID/g Muscle) was 0.08 %ID/g. The tissue uptake at 1 h (in vivo [2]; % ID/g Tumor) was 0.49 %ID/g, the tissue uptake at 1 h (in vivo [1]; % ID/g Bone) was 0.13 %ID/g and the tissue uptake at 1 h (in vivo [1]; % ID/g Brain) was 0.2 %ID/g. It also gave a tissue uptake at 1 h (in vivo [1]; % ID/g Heart) of 0.49 %ID/g, a tissue uptake at 1 h (in vivo [1]; % ID/g Intestine) of 0.6 %ID/g and a tissue uptake at 1 h (in vivo [1]; % ID/g Kidney) of 3.9 %ID/g. The tissue uptake at 1 h (in vivo [1]; % ID/g Liver) was 0.5 %ID/g, the tissue uptake at 1 h (in vivo [1]; % ID/g Lung) was 0.32 %ID/g and the tissue uptake at 1 h (in vivo [1]; % ID/g Muscle) was 0.23 %ID/g. It also gave a tissue uptake at 1 h (in vivo [1]; % ID/g Tumor) of 0.97 %ID/g, a tissue uptake at 1 h (in vivo [3]; % ID/g Bladder) of 7.3 %ID/g and a tissue uptake at 1 h (in vivo [3]; % ID/g Bone) of 0.05 %ID/g. The tissue uptake at 1 h (in vivo [3]; % ID/g Brain) was 0.09 %ID/g, the tissue uptake at 1 h (in vivo [3]; % ID/g Heart) was 0.11 %ID/g and the tissue uptake at 1 h (in vivo [3]; % ID/g Intestine) was 0.2 %ID/g. It also gave a tissue uptake at 1 h (in vivo [3]; % ID/g Kidney) of 1.6 %ID/g, a tissue uptake at 1 h (in vivo [3]; % ID/g Liver) of 0.16 %ID/g and a tissue uptake at 1 h (in vivo [3]; % ID/g Lung) of 0.08 %ID/g. The tissue uptake at 1 h (in vivo [3]; % ID/g Muscle) was 0.05 %ID/g and the tissue uptake at 1 h (in vivo [3]; % ID/g Tumor) was 0.2 %ID/g.

— US20260014285A1, “POLYPEPTIDE COMPOUND, AND COMPLEX AND USE THEREOF” (HANGZHOU HEALTHYTIDE BIOTECHNOLOGY CO., LTD., priority 2022, published 2026)
